Laboratory results reported in US11078207B2, “Substituted pyrrolo[2,3-d]pyrimidines as HER2 inhibitors” (TAIHO PHARMACEUTICAL CO., LTD., priority 2019, dated 2021).

Experiments:
HER2 = biological target: T1, HER2 (Homo sapiens, UniProt P04626); assay: Inhibitory effect (in vitro) on HER2 phosphorylation activity; format: biochemical; conditions: recombinant human HER2, ATP 5 μM, 25° C. 30 minutes
T1 construct: purchased Carna Biosciences, Inc
Text: In order to determine conditions for a method of measuring the in vitro inhibitory activity of a compound against HER2 phosphorylation activity, based on the report regarding a HER2 kinase reaction using, as a substrate, a peptide having the same sequence (5-FAM-[…]-CONH2) as that of ProfilerPro Peptide 22 of PerkinElmer (Xie H et al., PLoS One. 2011; 6(7): e21487), ProfilerPro Peptide 22 was used as a substrate. A purified recombinant human HER2 protein used in the present test was purchased from Carna Biosciences, Inc. Upon the measurement of the inhibitory activity of the compound, first, the compound of the present invention was diluted stepwise with dimethyl sulfoxide (DMSO). […] To the reaction solution, EDTA was added to a final concentration of 30 mM, so as to terminate the reaction. Finally, using LabChip (registered trademark) EZ Reader II (PerkinElmer), an unphosphorylated substrate peptide (S) and a phosphorylated peptide (P) were separated and detected according to microchannel capillary electrophoresis.

[1] = biological target: HER2 exon 20 insertion mutant (HER2ex20insYVMA, A775_G776insYVMA) (Homo sapiens, UniProt P04626, DUP772-775); assay: Inhibitory action (in vitro) against HER2 exon 20 insertion mutant phosphorylation activity; format: biochemical; conditions: 30 min pre-incubation, ATP 200 μM, 25° C. 220 minutes
HER2 exon 20 insertion mutant (HER2ex20insYVMA, A775_G776insYVMA), sequence (P04626 with tags, fused parts or gaps DUP772-775): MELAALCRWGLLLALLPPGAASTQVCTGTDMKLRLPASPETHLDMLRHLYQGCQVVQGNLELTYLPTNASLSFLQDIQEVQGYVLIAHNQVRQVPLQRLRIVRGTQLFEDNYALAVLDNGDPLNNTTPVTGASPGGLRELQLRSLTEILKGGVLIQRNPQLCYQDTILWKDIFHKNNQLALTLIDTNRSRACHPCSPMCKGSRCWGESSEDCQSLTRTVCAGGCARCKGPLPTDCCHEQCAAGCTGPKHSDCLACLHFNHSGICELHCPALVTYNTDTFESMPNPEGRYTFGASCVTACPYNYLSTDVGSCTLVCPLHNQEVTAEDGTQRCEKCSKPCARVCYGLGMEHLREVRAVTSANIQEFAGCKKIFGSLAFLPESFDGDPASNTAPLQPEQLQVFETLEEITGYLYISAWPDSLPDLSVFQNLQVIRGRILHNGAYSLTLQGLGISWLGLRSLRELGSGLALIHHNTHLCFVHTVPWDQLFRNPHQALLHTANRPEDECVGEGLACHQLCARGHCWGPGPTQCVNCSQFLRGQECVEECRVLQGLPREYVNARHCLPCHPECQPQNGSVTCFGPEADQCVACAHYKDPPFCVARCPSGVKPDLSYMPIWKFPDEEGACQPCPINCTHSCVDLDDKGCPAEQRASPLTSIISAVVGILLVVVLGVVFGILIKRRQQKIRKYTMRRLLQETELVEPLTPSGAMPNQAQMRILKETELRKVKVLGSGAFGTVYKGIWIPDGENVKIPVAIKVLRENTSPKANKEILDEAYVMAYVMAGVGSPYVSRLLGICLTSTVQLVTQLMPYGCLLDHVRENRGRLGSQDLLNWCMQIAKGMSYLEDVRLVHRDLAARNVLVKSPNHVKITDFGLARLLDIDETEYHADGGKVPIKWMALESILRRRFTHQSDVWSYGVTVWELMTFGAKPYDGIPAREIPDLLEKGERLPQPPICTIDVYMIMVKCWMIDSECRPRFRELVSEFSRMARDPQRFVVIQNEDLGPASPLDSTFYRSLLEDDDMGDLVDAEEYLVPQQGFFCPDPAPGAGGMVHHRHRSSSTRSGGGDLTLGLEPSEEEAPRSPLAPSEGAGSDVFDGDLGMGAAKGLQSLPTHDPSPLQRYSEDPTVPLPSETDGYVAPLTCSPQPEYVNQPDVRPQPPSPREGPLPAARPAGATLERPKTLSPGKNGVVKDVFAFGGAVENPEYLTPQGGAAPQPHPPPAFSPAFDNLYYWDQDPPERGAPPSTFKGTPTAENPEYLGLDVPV
Text: In order to determine conditions for a method of measuring the in vitro inhibitory activity of a compound against HER2 exon 20 insertion mutant phosphorylation activity, as in the case of HER2, ProfilerPro Peptide 22 was used as a substrate. A purified recombinant human HER2 exon 20 insertion mutant (A775_G776insYVMA) protein is shown in SEQ ID NO: 7, and was purchased from SignalChem. Upon the measurement of the inhibitory activity of the compound, first, the compound of the present invention was diluted stepwise with dimethyl sulfoxide (DMSO). Subsequently, the HER2 exon 20 insertion mutant protein and the compound of the present invention in DMSO solution (final concentration of DMSO: 5%) were added into a buffer for the kinase reaction (13.5 mM Tris (pH 7.5), 2 mM dithiothreitol, and 0.009% Tween 20), and the obtained mixture was then pre-incubated at 25° C. for 30 minutes. Thereafter, the substrate peptide (final concentration: 1 μM), manganese chloride (final concentration: 25 mM), magnesium chloride (final concentration: 20 mM), and ATP (final concentration: 200 μM) were added into the reaction mixture, and the thus obtained mixture was then incubated at 25° C. for 220 minutes, so that the kinase reaction was carried out. To the reaction solution, EDTA was added to a final concentration of 30 mM, so as to terminate the reaction. Finally, using LabChip (registered trademark) EZ Reader II (PerkinElmer), an unphosphorylated substrate peptide (S) and a phosphorylated peptide (P) were separated and detected according to microchannel capillary electrophoresis.

SK-BR-3 cells = assay: Growth inhibitory activity against HER2 expressing cell line SK-BR-3; format: cell-based; conditions: Homo sapiens, SK-BR-3, 72 h; 3 days, CellTiter-Glo 2.0
Procedure: SK-BR-3 cells as a HER2 overexpressing human breast cancer cell line were suspended in a McCoy's 5a medium (manufactured by Life Technologies) supplemented with 10% fetal bovine serum. The cell suspension was seeded in each well of a 384-well flat-bottom microplate, and was then cultured in a 5% carbon dioxide gas-containing culture vessel at 37° C. for 1 day. Thereafter, the compound of the present invention was dissolved in DMSO, and the compound was diluted to 500 times the final concentration in DMSO. The compound in the DMSO solution was diluted with DMSO solution or the medium used in the suspension of the cells, and the obtained solution was then added to each well of the culture plate so that the final concentration of DMSO was 0.2%. The obtained mixture was further cultured in the 5% carbon dioxide gas-containing culture vessel at 37° C. for 3 days. After completion of the culture for 3 days in the presence of the compound, the cells were counted using CellTiter-Glo 2.0 (manufactured by Promega), and the growth inhibition percentage was then calculated according to the following equation. […] Growth inhibitory percentage (%)=(C−T)/(C)×100 T: Emission intensity from the well to which the test compound was added C: Emission intensity from the well to which the test compound was not added

Ba/F3-HER2insYVMA cells = Ba/F3-HER2insYVMA cells (Homo sapiens, UniProt P04626, DUP772-775, cells depend on it); assay: Growth inhibitory activity against HER2 exon 20 insertion mutant expressing cell line; format: cell-based, mouse; conditions: 3 days, CellTiter-Glo 2.0, read-out: HER2ex20insYVMA cell growth inhibitory activity IC50 value
Ba/F3-HER2insYVMA cells, sequence (P04626 with tags, fused parts or gaps DUP772-775): as above
Procedure: Growth inhibitory activity against the HER2 exon 20 insertion mutant was measured using Ba/F3 cells that were a mouse B lymphocyte precursor cell line, into which a human HER2 exon 20 insertion mutant gene had been introduced. The Ba/F3 cells were maintained in an RPMI-1640 medium (Thermo Fisher Scientific) supplemented with 10% fetal bovine serum (FBS), 100 U/mL penicillin, 100 μg/mL streptomycin (Thermo Fisher Scientific) and 1 ng/mL mouse interleukin-3 (mIL-3) (CST).
Upon evaluation of cell growth inhibitory activity, the Ba/F3-HER2insYVMA cells were suspended in an RPMI-1640 medium supplemented with 10% FBS, 100 U/mL penicillin, and 100 μg/mL streptomycin. The cell suspension was seeded in each well of a 96-well flat-bottom microplate, and was then cultured in a 5% carbon dioxide gas-containing culture vessel at 37° C. for 1 day. The compound of the present invention was dissolved in DMSO, and was then diluted with DMSO or the medium used in the suspension of the cells. The obtained solution was then added to each well of the culture plate, so that the final concentration of DMSO became 0.2%. The obtained mixture was further cultured in the 5% carbon dioxide gas-containing culture vessel at 37° C. for 3 days. After completion of the culture for 3 days in the presence of the compound, the cells were counted using CellTiter-Glo 2.0 (manufactured by Promega), and the growth inhibition percentage was then calculated according to the following equation. […] Growth inhibitory percentage (%)=(C−T)/(C)×100 T: Emission intensity from the well to which the test compound was added C: Emission intensity from the well to which the test compound was not added

NCI-N87 cells = assay: Growth inhibitory activity against HER2 expressing cell line NCI-N87; format: cell-based; conditions: Homo sapiens, NCI-N87, 72 h; 3 days, CellTiter-Glo 2.0
Procedure: NCI-N87 cells as a HER2 overexpressing human stomach cancer cell line (American Type Culture Collection, Cat No. ATCC (registered trademark) CRL-5822) were suspended in an RPMI640 medium (Wako Pure Chemical Industries, Ltd.) supplemented with 10% fetal bovine serum. Subsequently, the cell suspension was seeded in each well of a 96-well flat-bottom microplate, and was then cultured in a 5% carbon dioxide gas-containing culture vessel at 37° C. for 1 day. Thereafter, the compound of the present invention was dissolved in DMSO, and the compound was diluted to 1000 times the final concentration in DMSO. The compound in the DMSO solution was diluted with the medium used in the suspension of the cells, and the obtained solution was then added to each well of the culture plate, so that the final concentration of DMSO became 0.1%. Regarding a control well, DMSO was diluted with the medium used in the suspension of the cells, and the obtained solution was then added to each well of the culture plate, so that the final concentration of DMSO became 0.1%. After addition of a drug solution, the obtained mixture was further cultured in the 5% carbon dioxide gas-containing culture vessel at 37° C. for 3 days. After completion of the culture for 3 days in the presence of the compound, the cells were counted using CellTiter-Glo 2.0 (manufactured by Promega) in accordance with the protocols recommended by Promega. The growth inhibition percentage was calculated according to the following equation. […] Growth inhibitory percentage (%)=(C−T)/(C)×100 T: Emission intensity from the well to which the test compound was added C: Emission intensity from the well to which the test compound was not added

[2] = Evaluation of oral absorbability; format: in vivo, BALB/cA mice; conditions: mouse; plasma, oral 50 mg/kg/day, BALB/cA mice
Procedure: The compound of the present invention was suspended or dissolved in 0.5% HPMC aqueous solution and 0.1 N hydrochloric acid, and the obtained suspension or solution was orally administered to BALB/cA mice (CLEA Japan, Inc.) at a dose of 50 mg/kg/day. At 0.5, 1, 2, 4 and 6 hours after completion of the oral administration, blood was collected from the facial vein over time, so as to obtain plasma. The concentration of the compound in the obtained plasma was measured by LC-MS/MS, and the oral absorbability of the present compound was evaluated.

p-gp or Bcrp = conditions: Non Patent Literature 5; cited from earlier work
[3] = non-clinical tests, Non Patent Literature 5; cited from earlier work
brain metastatic cancer = conditions: clinical tests, Non Patent Literatures 6-9; cited from earlier work

T1 sequence (P04626 23-1255): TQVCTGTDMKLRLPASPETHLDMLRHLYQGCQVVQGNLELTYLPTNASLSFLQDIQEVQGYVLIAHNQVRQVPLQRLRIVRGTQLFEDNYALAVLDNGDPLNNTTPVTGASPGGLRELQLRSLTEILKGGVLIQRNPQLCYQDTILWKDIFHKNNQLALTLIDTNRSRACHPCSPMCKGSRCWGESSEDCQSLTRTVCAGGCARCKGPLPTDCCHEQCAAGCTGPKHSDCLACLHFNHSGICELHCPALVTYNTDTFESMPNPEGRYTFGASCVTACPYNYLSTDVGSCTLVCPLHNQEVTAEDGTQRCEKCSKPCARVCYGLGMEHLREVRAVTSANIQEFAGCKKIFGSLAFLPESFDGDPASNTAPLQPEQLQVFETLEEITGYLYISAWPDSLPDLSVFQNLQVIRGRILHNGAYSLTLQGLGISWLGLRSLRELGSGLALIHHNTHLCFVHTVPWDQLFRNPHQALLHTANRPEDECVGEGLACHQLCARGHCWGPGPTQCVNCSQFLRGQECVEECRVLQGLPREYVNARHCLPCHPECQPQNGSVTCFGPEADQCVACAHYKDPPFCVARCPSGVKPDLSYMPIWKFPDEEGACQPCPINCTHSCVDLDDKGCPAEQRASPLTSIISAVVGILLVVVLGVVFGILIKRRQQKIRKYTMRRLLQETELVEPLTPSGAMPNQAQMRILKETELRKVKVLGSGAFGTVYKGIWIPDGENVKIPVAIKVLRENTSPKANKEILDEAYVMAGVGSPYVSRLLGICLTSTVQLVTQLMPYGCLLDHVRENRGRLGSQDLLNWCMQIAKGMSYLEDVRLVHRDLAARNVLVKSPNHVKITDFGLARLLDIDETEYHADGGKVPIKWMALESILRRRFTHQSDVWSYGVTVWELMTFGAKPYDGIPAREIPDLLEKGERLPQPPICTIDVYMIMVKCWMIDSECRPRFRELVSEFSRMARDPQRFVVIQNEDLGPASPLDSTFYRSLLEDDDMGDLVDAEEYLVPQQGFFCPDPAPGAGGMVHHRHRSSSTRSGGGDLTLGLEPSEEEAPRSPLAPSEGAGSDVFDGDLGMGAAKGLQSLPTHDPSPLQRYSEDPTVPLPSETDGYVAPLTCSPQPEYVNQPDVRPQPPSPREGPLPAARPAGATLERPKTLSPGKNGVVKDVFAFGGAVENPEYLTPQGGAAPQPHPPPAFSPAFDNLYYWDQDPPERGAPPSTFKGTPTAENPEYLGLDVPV

SMILES | IC50 (HER2) | IC50 [1] | IC50 (SK-BR-3 cells) | GI50 (Ba/F3-HER2insYVMA cells) | IC50 (NCI-N87 cells) | AUC(0-t) [2] | substrate of p-gp or Bcrp (p-gp or Bcrp) | brain penetration properties [3] | effects against brain metastatic cancer (brain metastatic cancer)
C=CC(=O)N1C[C@H](n2c(C#CC3CC3)c(C(=O)N[C@H](C)c3ccccc3)c3c(N)ncnc32)C[C@@H]1COCC [Example 19, 7-((3R,5R)-1-acryloyl-5-(ethoxymethyl)pyrrolidin-3-yl)-4-amino-6-(cyclopropylethynyl)-N—((R)-1-phenylethyl)-7H-pyrrolo[2,3-d]pyrimidine-5-carboxamide] | 4.4 nM | 1.1 nM | 17 nM | 50 nM | 7.9 nM | 6.1 µM·h | – | – | –
CS(=O)(=O)CCNCc1ccc(-c2ccc3ncnc(Nc4ccc(OCc5cccc(F)c5)c(Cl)c4)c3c2)o1 [Lapatinib] | – | – | – | – | – | – | substrates of p-gp or Bcrp | limited | sufficient effects of these agents could not be obtained
CCOc1cc2ncc(C#N)c(Nc3ccc(OCc4ccccn4)c(Cl)c3)c2cc1NC(=O)/C=C/CN(C)C [Neratinib] | – | – | – | – | – | – | substrates of p-gp or Bcrp | limited | sufficient effects of these agents could not be obtained
